According to US20170210778A1, “NOVEL COMPOUNDS” (The Provost, Fellows, Foundation Scholars, and the other …, priority 2014, published 2017):

How the values were obtained:
[1] = target: T1, murine NOD1 (Mus musculus, UniProt Q8BHB0); assay: NOD1 functional agonist assay, 293mNOD1-SEAP reporter cells; type: cell-based; details: 293mNOD1 cells, OD above 3*O.D of negative control
T1 construct: expressed in transfected cells; host or cells: HEK293
T1 sequence (Q8BHB0 1-953): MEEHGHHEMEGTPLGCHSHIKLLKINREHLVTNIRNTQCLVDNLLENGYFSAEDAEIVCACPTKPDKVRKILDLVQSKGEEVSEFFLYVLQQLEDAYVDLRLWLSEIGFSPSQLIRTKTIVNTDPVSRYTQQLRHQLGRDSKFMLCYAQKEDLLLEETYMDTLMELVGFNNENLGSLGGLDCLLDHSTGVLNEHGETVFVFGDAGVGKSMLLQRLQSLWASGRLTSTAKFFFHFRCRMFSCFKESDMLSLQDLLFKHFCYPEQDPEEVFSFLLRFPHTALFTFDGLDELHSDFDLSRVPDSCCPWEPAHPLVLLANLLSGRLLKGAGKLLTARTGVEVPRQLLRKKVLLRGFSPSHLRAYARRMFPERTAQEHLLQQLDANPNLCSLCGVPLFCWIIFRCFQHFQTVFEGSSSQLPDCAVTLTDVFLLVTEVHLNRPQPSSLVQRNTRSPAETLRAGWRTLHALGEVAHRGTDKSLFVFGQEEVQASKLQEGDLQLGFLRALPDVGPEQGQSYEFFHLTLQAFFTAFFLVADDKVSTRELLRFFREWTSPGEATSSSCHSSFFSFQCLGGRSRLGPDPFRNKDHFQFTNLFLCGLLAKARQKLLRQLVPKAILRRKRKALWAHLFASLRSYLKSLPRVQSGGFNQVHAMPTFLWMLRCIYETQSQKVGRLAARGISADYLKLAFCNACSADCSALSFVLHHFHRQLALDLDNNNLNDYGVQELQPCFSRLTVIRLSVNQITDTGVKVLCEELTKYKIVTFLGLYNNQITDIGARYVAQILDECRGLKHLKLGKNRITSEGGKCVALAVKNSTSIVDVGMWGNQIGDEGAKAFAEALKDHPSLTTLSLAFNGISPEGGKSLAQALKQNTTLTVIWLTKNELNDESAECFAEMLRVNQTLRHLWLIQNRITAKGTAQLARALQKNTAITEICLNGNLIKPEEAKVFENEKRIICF
Text: (§1) HEK293 cells were stably transfected with plasmid for the overexpression of the NOD1 genes and a reporter plasmid expressing a secreted embryonic alkaline phosphatase (SEAP) gene under the control of a promoter inducible by the transcription factors NF-κB and AP-1. These cells are referred herein as 293hNOD1-SEAP (for cells overexpressing the human NOD1 gene) and 293mNOD1-SEAP (for cells overexpressing the murine NOD1 gene). Upon NOD1 stimulation, these cells induce the activation of NF-κB and AP-1 and subsequently the secretion of SEAP. The reporter protein is easily detectable and measurable when using QUANTI-Blue™ (InvivoGen, San Diego, Calif.), a medium that turns purple/blue in the presence of SEAP.
(§2) The biological activity of the compounds of the invention tested using 293hNOD1 and 293mNOD1 cells. SEAP expression was measured using the commercially available SEAP detection kit (HEK-Blue™ Detection, InvivoGen). The SEAP activity in cells was quantified using the microplate reader (FLUOStar OPTIMA, BMG laboratories), the absorbance values were read using filter with excitation at 620 nm and emission at 655 nm. The results provided in Table 2 were expressed as the concentration were a significant mean optical density (OD) can be observed (above 3*O.D of negative control). As a positive control, the NOD1 pathway was stimulated with commercially available iE-DAP (InvivoGen) and C12-iE-DAP (an acylated derivative of DAP; InvivoGen). As a negative control endotoxin-free water was used. Additionally, 293 cells expressing the SEAP gene but not the NOD1 gene were used as a control.

[2] = target: T2, human NOD1 (Homo sapiens, UniProt Q9Y239); assay: NOD1 functional agonist assay, 293hNOD1-SEAP reporter cells; type: cell-based; details: 293hNOD1 cells, OD above 3*O.D of negative control
T2 construct: expressed in transfected cells; host or cells: HEK293
T2 sequence (Q9Y239 1-953): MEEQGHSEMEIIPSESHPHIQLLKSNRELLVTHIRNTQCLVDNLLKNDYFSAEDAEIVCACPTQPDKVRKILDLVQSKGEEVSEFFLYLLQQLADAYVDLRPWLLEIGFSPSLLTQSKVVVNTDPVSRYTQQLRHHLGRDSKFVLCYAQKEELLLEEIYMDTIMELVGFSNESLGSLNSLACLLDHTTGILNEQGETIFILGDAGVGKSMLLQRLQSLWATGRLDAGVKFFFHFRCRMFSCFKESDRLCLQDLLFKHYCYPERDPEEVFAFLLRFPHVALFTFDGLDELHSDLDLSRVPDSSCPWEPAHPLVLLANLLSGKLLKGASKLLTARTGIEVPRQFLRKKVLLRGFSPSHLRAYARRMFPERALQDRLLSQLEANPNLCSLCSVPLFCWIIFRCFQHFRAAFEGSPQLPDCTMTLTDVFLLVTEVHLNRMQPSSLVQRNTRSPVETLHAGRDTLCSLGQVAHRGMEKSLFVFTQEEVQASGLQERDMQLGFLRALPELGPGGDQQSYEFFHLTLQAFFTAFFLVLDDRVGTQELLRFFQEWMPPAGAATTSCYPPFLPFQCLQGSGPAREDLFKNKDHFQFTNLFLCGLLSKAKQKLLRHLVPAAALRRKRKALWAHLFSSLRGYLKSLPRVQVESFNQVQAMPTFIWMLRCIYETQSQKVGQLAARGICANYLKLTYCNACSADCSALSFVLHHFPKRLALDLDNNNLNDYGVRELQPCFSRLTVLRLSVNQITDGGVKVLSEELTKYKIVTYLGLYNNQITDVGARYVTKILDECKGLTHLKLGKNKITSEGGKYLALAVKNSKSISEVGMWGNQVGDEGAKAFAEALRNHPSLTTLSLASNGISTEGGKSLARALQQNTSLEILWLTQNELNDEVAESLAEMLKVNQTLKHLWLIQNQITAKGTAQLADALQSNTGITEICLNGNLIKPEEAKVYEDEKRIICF
Text: as §1, §2

mNod1: concentration where a significant mean optical density (OD) can be observed [1] [µg/mL]	hNod1: concentration where a significant mean optical density (OD) can be observed [2] [µg/mL]	SMILES
100	100	C[C@H](N)C(=O)N[C@H](CCC(=O)N[C@@H](COC[C@@H](N)C(=O)O)C(=O)O)C(=O)O [Example 36, N^2-(L-alanyl)-N^5-((S)-2-((R)-2-amino-2-carboxyethoxy)-1-carboxyethyl)-D-glutamine]
0.001	0.001	CCCCCCCCCCCC(=O)N[C@@H](C)C(=O)N[C@H](CCC(=O)N[C@H](CSC[C@H](N)C(=O)O)C(=O)NCC(=O)O)C(=O)O [Example 28, N^5-((S)-3-(((R)-2-amino-2-carboxyethyl)thio)-1-((carboxymethyl)amino)-1-oxopropan-2-yl)-N^2-(dodecanoyl-L-alanyl)-D-glutamine]
0.1	0.001	CCCCCCCCCCCCCC(=O)N[C@H](C(=O)N[C@H](CCC(=O)N[C@H](CSC[C@H](N)C(=O)O)C(=O)O)C(=O)O)C(C)C [Example 12, N^5-((S)-2-(((R)-2-amino-2-carboxyethyl)thio)-1-carboxyethyl)-N^2-(tetradecanoyl-L-valyl)-D-glutamine]
0.01	0.01	CCCCCCCCCCCC(=O)N[C@@H](C)C(=O)N[C@H](CCC(=O)N[C@H](CSC[C@H](N)C(=O)O)C(=O)N[C@H](C)C(=O)O)C(=O)O [Example 20, N^5-((S)-3-(((R)-2-amino-2-carboxyethyl)thio)-1-(((R)-1-carboxyethyl)amino)-1-oxopropan-2-yl)-N^2-(dodecanoyl-L-alanyl)-D-glutamine]
1	0.001	CCCCCCCCCCCCCC(=O)N[C@@H](Cc1ccccc1)C(=O)N[C@H](CCC(=O)N[C@H](CSC[C@H](N)C(=O)O)C(=O)O)C(=O)O [Example 13, N^5-((S)-2-(((R)-2-amino-2-carboxyethyl)thio)-1-carboxyethyl)-N^2-(tetradecanoyl-L-phenylalanyl)-D-glutamine]
1	0.1	CC(C)C[C@H](N)C(=O)N[C@H](CCC(=O)N[C@H](CSC[C@H](N)C(=O)O)C(=O)O)C(=O)O [Example 6, N^2-(L-leucyl)-N^5-((S)-2-(((R)-2-amino-2-carboxyethyl)thio)-1-carboxyethyl)-D-glutamine]
0.1	0.01	CCCCCCCCCCCC(=O)N[C@H](CCC(=O)N[C@H](CSC[C@H](N)C(=O)O)C(=O)O)C(=O)O [Example 3, N^5-((S)-2-(((R)-2-amino-2-carboxyethyl)thio)-1-carboxyethyl)-N^2-dodecanoyl-D-glutamine]
10	1	N[C@H](CCC(=O)N[C@H](CSC[C@H](N)C(=O)O)C(=O)NCC(=O)O)C(=O)O [Example 22, N^5-((S)-3-(((R)-2-amino-2-carboxyethyl)thio)-1-((carboxymethyl)amino)-1-oxopropan-2-yl)-D-glutamine]
0.001	0.01	CCCCCCCCCCCCCC(=O)N[C@@H](C)C(=O)N[C@H](CCC(=O)N[C@H](CSC[C@H](N)C(=O)O)C(=O)N[C@H](C)C(=O)O)C(=O)O [Example 21, N^5-((S)-3-(((R)-2-amino-2-carboxyethyl)thio)-1-(((R)-1-carboxyethyl)amino)-1-oxopropan-2-yl)-N^2-(tetradecanoyl-L-alanyl)-D-glutamine]
0.01	0.01	CCCCCCCCCCCCCC(=O)N[C@H](CCC(=O)N[C@@H](COC[C@@H](N)C(=O)O)C(=O)O)C(=O)O [Example 35, N^5-((S)-2-((R)-2-amino-2-carboxyethoxy)-1-carboxyethyl)-N^2-tetradecanoyl-D-glutamine]
10	10	N[C@H](CCC(=O)N[C@@H](COC[C@@H](N)C(=O)O)C(=O)O)C(=O)O [Example 34, N^5-((S)-2-((R)-2-amino-2-carboxyethoxy)-1-carboxyethyl)-D-glutamine]
0.1	0.001	CCCCCCCCCCCCCC(=O)N[C@@H](CC(C)C)C(=O)N[C@H](CCC(=O)N[C@H](CSC[C@H](N)C(=O)O)C(=O)O)C(=O)O [Example 10, N^5-((S)-2-(((R)-2-amino-2-carboxyethyl)thio)-1-carboxyethyl)-N^2-(tetradecanoyl-L-leucyl)-D-glutamine]
0.001	0.01	CCCCCCCCCCCCCC(=O)N[C@H](CCC(=O)N[C@H](CSC[C@H](N)C(=O)O)C(=O)N[C@H](C)C(=O)O)C(=O)O [Example 17, N^5-((S)-3-(((R)-2-amino-2-carboxyethyl)thio)-1-(((R)-1-carboxyethyl)amino)-1-oxopropan-2-yl)-N^2-tetradecanoyl-D-glutamine]
